{"source": "patent US10071086B2", "about": "“1H-pyrazolo[3,4-b]pyridines and therapeutic uses thereof” (Samumed, LLC, priority 2012, dated 2018)", "tested_on": "Wnt pathway", "assay": "Wnt activity reporter assay (SP5 promoter-luciferase in SW480 cells)", "assay_type": "cell-based", "conditions": "Homo sapiens, SP5 promoter firefly luciferase reporter, read-out: Wnt inhibition", "excerpt": "The above synthesized compounds were screened using the assay procedure for Wnt activity described below.\nReporter cell lines can be generated by stably transducing cells of cancer cell lines (e.g., colon cancer) with a lentiviral construct that include a wnt-responsive promoter driving expression of the firefly luciferase gene.\nLentiviral constructs can be made in which the SP5 promoter, a promoter having eight TCF/LEF binding sites derived from the SP5 promoter, is linked upstream of the firefly luciferase gene. The lentiviral constructs can also include a hygromycin resistance gene as a selectable marker. The SP5 promoter construct can be used to transduce SW480 cells, a colon cancer cell line having a mutated APC gene that generates a truncated APC protein, leading to de-regulated accumulation of β-catenin.\nCultured SW480 cells bearing a reporter construct can be distributed at approximately 10,000 cells per well into 96 well or 384 well plates. Compounds from a small molecule compound library can then be added to the wells in half-log dilutions using a ten micromolar top concentration. A series of control wells for each cell type receive only buffer and compound solvent. Twenty-four to forty hours after the addition of compound, reporter activity for luciferase can be assayed, for example, by addition of the BrightGlo luminescence reagent (Promega) and the Victor3 plate reader (Perkin Elmer). Readings can be normalized to DMSO only treated cells, and normalized activities can then be used in the IC50 calculations.", "data": [{"smiles": "Fc1ccc(-c2cccc3[nH]c(-c4n[nH]c5ncc(-c6cncc(CNCC7CCCC7)c6)cc45)nc23)cc1", "note": "[Compound 586, 1-Cyclopentyl-N-((5-(3-(4-(4-fluorophenyl)-1H-benzo[d]imidazol-2-yl)-1H-pyrazolo[3,4-b]pyridin-5-yl)pyridin-3-yl)methyl)methanamine]", "values": [{"measurement": "IC50", "value": 420, "unit": "nM"}]}, {"smiles": "Fc1ccccc1-c1cccc2[nH]c(-c3n[nH]c4ncc(-c5cccnc5)cc34)nc12", "note": "[Compound 590, 3-(4-(2-Fluorophenyl)-1H-benzo[d]imidazol-2-yl)-5-(pyridin-3-yl)-1H-pyrazolo[3,4-b]pyridine]", "values": [{"measurement": "IC50", "value": 20, "unit": "nM"}]}, {"smiles": "CC(C)(C)C(=O)Nc1cncc(-c2cnc3[nH]nc(-c4nc5c(-c6ccccc6F)cccc5[nH]4)c3c2)c1", "note": "[Compound 594, N-(5-(3-(4-(2-Fluorophenyl)-1H-benzo[d]imidazol-2-yl)-1H-pyrazolo[3,4-b]pyridin-5-yl)pyridin-3-yl)pivalamide]", "values": [{"measurement": "IC50", "value": 120, "unit": "nM"}]}, {"smiles": "O=C(Cc1ccccc1)Nc1cncc(-c2cnc3[nH]nc(-c4nc5c(-c6ccccc6F)cccc5[nH]4)c3c2)c1", "note": "[Compound 595, N-(5-(3-(4-(2-Fluorophenyl)-1H-benzo[d]imidazol-2-yl)-1H-pyrazolo[3,4-b]pyridin-5-yl)pyridin-3-yl)-2-phenylacetamide]", "values": [{"measurement": "IC50", "value": 354, "unit": "nM"}]}, {"smiles": "Fc1ccccc1-c1cccc2[nH]c(-c3n[nH]c4ncc(-c5cncc(CN6CCCC6)c5)cc34)nc12", "note": "[Compound 599, 3-(4-(2-Fluorophenyl)-1H-benzo[d]imidazol-2-yl)-5-(5-(pyrrolidin-1-ylmethyl)pyridin-3-yl)-1H-pyrazolo[3,4-b]pyridine]", "values": [{"measurement": "IC50", "value": 220, "unit": "nM"}]}, {"smiles": "CCCC(=O)Nc1cncc(-c2cnc3[nH]nc(-c4nc5c(-c6ccccc6F)cccc5[nH]4)c3c2)c1", "note": "[Compound 602, N-(5-(3-(4-(2-Fluorophenyl)-1H-benzo[d]imidazol-2-yl)-1H-pyrazolo[3,4-b]pyridin-5-yl)pyridin-3-yl)butyramide]", "values": [{"measurement": "IC50", "value": 18, "unit": "nM"}]}, {"smiles": "O=C(Nc1cncc(-c2cnc3[nH]nc(-c4nc5c(-c6ccccc6F)cccc5[nH]4)c3c2)c1)C1CCC1", "note": "[Compound 605, N-(5-(3-(4-(2-Fluorophenyl)-1H-benzo[d]imidazol-2-yl)-1H-pyrazolo[3,4-b]pyridin-5-yl)pyridin-3-yl)cyclobutanecarboxamide]", "values": [{"measurement": "IC50", "value": 18, "unit": "nM"}]}, {"smiles": "CN(C)c1cncc(-c2cnc3[nH]nc(-c4nc5c(-c6cccnc6)cccc5[nH]4)c3c2)c1", "note": "[Compound 616, N,N-Dimethyl-5-(3-(4-(pyridin-3-yl)-1H-benzo[d]imidazol-2-yl)-1H-pyrazolo[3,4-b]pyridin-5-yl)pyridin-3-amine]", "values": [{"measurement": "IC50", "value": 1410, "unit": "nM"}]}, {"smiles": "CN(C)Cc1cncc(-c2cnc3[nH]nc(-c4nc5c(-c6cccnc6)cccc5[nH]4)c3c2)c1", "note": "[Compound 621, N,N-Dimethyl-1-(5-(3-(4-(pyridin-3-yl)-1H-benzo[d]imidazol-2-yl)-1H-pyrazolo[3,4-b]pyridin-5-yl)pyridin-3-yl)methanamine]", "values": [{"measurement": "IC50", "value": 36, "unit": "nM"}]}, {"smiles": "Nc1cncc(-c2cnc3[nH]nc(-c4nc5c(-c6ccncc6)cccc5[nH]4)c3c2)c1", "note": "[Compound 635, 5-(3-(4-(Pyridin-4-yl)-1H-benzo[d]imidazol-2-yl)-1H-pyrazolo[3,4-b]pyridin-5-yl)pyridin-3-amine]", "values": [{"measurement": "IC50", "value": 34, "unit": "nM"}]}, {"smiles": "Cc1ccncc1-c1cnc2[nH]nc(-c3nc4c(-c5ccncc5)cccc4[nH]3)c2c1", "note": "[Compound 637, 5-(4-Methylpyridin-3-yl)-3-(4-(pyridin-4-yl)-1H-benzo[d]imidazol-2-yl)-1H-pyrazolo[3,4-b]pyridine]", "values": [{"measurement": "IC50", "value": 110, "unit": "nM"}]}, {"smiles": "CC(C)Nc1cncc(-c2cnc3[nH]nc(-c4nc5c(-c6ccncc6)cccc5[nH]4)c3c2)c1", "note": "[Compound 643, N-Isopropyl-5-(3-(4-(pyridin-4-yl)-1H-benzo[d]imidazol-2-yl)-1H-pyrazolo[3,4-b]pyridin-5-yl)pyridin-3-amine]", "values": [{"measurement": "IC50", "value": 30, "unit": "nM"}]}, {"smiles": "CC(C)(C)CC(=O)Nc1cncc(-c2cnc3[nH]nc(-c4nc5c(-c6ccncc6)cccc5[nH]4)c3c2)c1", "note": "[Compound 647, 3,3-Dimethyl-N-(5-(3-(4-(pyridin-4-yl)-1H-benzo[d]imidazol-2-yl)-1H-pyrazolo[3,4-b]pyridin-5-yl)pyridin-3-yl)butanamide]", "values": [{"measurement": "IC50", "value": 1520, "unit": "nM"}]}, {"smiles": "c1ccc(CNCc2cncc(-c3cnc4[nH]nc(-c5nc6c(-c7ccncc7)cccc6[nH]5)c4c3)c2)cc1", "note": "[Compound 654, N-Benzyl-1-(5-(3-(4-(pyridin-4-yl)-1H-benzo[d]imidazol-2-yl)-1H-pyrazolo[3,4-b]pyridin-5-yl)pyridin-3-yl)methanamine]", "values": [{"measurement": "IC50", "value": 1500, "unit": "nM"}]}, {"smiles": "FC1(F)CCN(Cc2cncc(-c3cnc4[nH]nc(-c5nc6c(-c7ccccn7)cccc6[nH]5)c4c3)c2)C1", "note": "[Compound 680, 5-(5-((3,3-Difluoropyrrolidin-1-yl)methyl)pyridin-3-yl)-3-(4-(pyridin-2-yl)-1H-benzo[d]imidazol-2-yl)-1H-pyrazolo[3,4-b]pyridine]", "values": [{"measurement": "IC50", "value": 170, "unit": "nM"}]}, {"smiles": "O=C(Nc1cncc(-c2cnc3[nH]nc(-c4nc5c(N6CCCCC6)cccc5[nH]4)c3c2)c1)c1ccccc1", "note": "[Compound 691, N-(5-(3-(4-(Piperidin-1-yl)-1H-benzo[d]imidazol-2-yl)-1H-pyrazolo[3,4-b]pyridin-5-yl)pyridin-3-yl)benzamide]", "values": [{"measurement": "IC50", "value": 187, "unit": "nM"}]}, {"smiles": "CCCCC(=O)Nc1cncc(-c2cnc3[nH]nc(-c4nc5c(N6CCCCC6)cccc5[nH]4)c3c2)c1", "note": "[Compound 698, N-(5-(3-(4-(Piperidin-1-yl)-1H-benzo[d]imidazol-2-yl)-1H-pyrazolo[3,4-b]pyridin-5-yl)pyridin-3-yl)pentanamide]", "values": [{"measurement": "IC50", "value": 300, "unit": "nM"}]}, {"smiles": "O=C(Nc1cncc(-c2cnc3[nH]nc(-c4nc5c(N6CCCCC6)cccc5[nH]4)c3c2)c1)C1CCCC1", "note": "[Compound 701, N-(5-(3-(4-(Piperidin-1-yl)-1H-benzo[d]imidazol-2-yl)-1H-pyrazolo[3,4-b]pyridin-5-yl)pyridin-3-yl)cyclopentanecarboxamide]", "values": [{"measurement": "IC50", "value": 625, "unit": "nM"}]}, {"smiles": "c1cc(N2CCCCC2)c2nc(-c3n[nH]c4ncc(-c5cncc(CNCC6CCCC6)c5)cc34)[nH]c2c1", "note": "[Compound 704, 1-Cyclopentyl-N-((5-(3-(4-(piperidin-1-yl)-1H-benzo[d]imidazol-2-yl)-1H-pyrazolo[3,4-b]pyridin-5-yl)pyridin-3-yl)methyl)methanamine]", "values": [{"measurement": "IC50", "value": 810, "unit": "nM"}]}, {"smiles": "Cc1cn(-c2cccc3[nH]c(-c4n[nH]c5ncc(-c6cncc(CN(C)C)c6)cc45)nc23)cn1", "note": "[Compound 719, N,N-Dimethyl-1-(5-(3-(4-(4-methyl-1H-imidazol-1-yl)-1H-benzo[d]imidazol-2-yl)-1H-pyrazolo[3,4-b]pyridin-5-yl)pyridin-3-yl)methanamine]", "values": [{"measurement": "IC50", "value": 200, "unit": "nM"}]}, {"smiles": "Cc1cn(-c2cccc3[nH]c(-c4n[nH]c5ncc(-c6cncc(NC(=O)C7CCCCC7)c6)cc45)nc23)cn1", "note": "[Compound 728, N-(5-(3-(4-(4-Methyl-1H-imidazol-1-yl)-1H-benzo[d]imidazol-2-yl)-1H-pyrazolo[3,4-b]pyridin-5-yl)pyridin-3-yl)cyclohexanecarboxamide]", "values": [{"measurement": "IC50", "value": 39, "unit": "nM"}]}, {"smiles": "CCNCc1cncc(-c2cnc3[nH]nc(-c4nc5c(N6CCN(C)CC6)cccc5[nH]4)c3c2)c1", "note": "[Compound 738, N-((5-(3-(4-(4-Methylpiperazin-1-yl)-1H-benzo[d]imidazol-2-yl)-1H-pyrazolo[3,4-b]pyridin-5-yl)pyridin-3-yl)methyl)ethanamine]", "values": [{"measurement": "IC50", "value": 550, "unit": "nM"}]}, {"smiles": "CN1CCN(c2cccc3[nH]c(-c4n[nH]c5ncc(-c6cncc(NC(=O)C7CCC7)c6)cc45)nc23)CC1", "note": "[Compound 752, N-(5-(3-(4-(4-Methylpiperazin-1-yl)-1H-benzo[d]imidazol-2-yl)-1H-pyrazolo[3,4-b]pyridin-5-yl)pyridin-3-yl)cyclobutanecarboxamide]", "values": [{"measurement": "IC50", "value": 226, "unit": "nM"}]}, {"smiles": "CN1CCN(c2cccc3[nH]c(-c4n[nH]c5ncc(-c6cncc(CN7CCC(F)(F)C7)c6)cc45)nc23)CC1", "note": "[Compound 758, 5-(5-((3,3-Difluoropyrrolidin-1-yl)methyl)pyridin-3-yl)-3-(4-(4-methylpiperazin-1-yl)-1H-benzo[d]imidazol-2-yl)-1H-pyrazolo[3,4-b]pyridine]", "values": [{"measurement": "IC50", "value": 48, "unit": "nM"}]}, {"smiles": "Nc1cncc(-c2cnc3[nH]nc(-c4nc5ccccc5[nH]4)c3c2)c1", "note": "[Compound 761, 5-(3-(1H-Benzo[d]imidazol-2-yl)-1H-pyrazolo[3,4-b]pyridin-5-yl)pyridin-3-amine]", "values": [{"measurement": "IC50", "value": 320, "unit": "nM"}]}, {"smiles": "CN(C)c1cncc(-c2cnc3[nH]nc(-c4nc5ccccc5[nH]4)c3c2)c1", "note": "[Compound 765, 5-(3-(1H-Benzo[d]imidazol-2-yl)-1H-pyrazolo[3,4-b]pyridin-5-yl)-N,N-dimethylpyridin-3-amine]", "values": [{"measurement": "IC50", "value": 27, "unit": "nM"}]}, {"smiles": "CC(C)(C)CC(=O)Nc1cncc(-c2cnc3[nH]nc(-c4nc5ccccc5[nH]4)c3c2)c1", "note": "[Compound 774, N-(5-(3-(1H-Benzo[d]imidazol-2-yl)-1H-pyrazolo[3,4-b]pyridin-5-yl)pyridin-3-yl)-3,3-dimethylbutanamide]", "values": [{"measurement": "IC50", "value": 200, "unit": "nM"}]}, {"smiles": "c1ccc(CNCc2cncc(-c3cnc4[nH]nc(-c5nc6ccccc6[nH]5)c4c3)c2)cc1", "note": "[Compound 781, 1-(5-(3-(1H-Benzo[d]imidazol-2-yl)-1H-pyrazolo[3,4-b]pyridin-5-yl)pyridin-3-yl)-N-benzylmethanamine]", "values": [{"measurement": "IC50", "value": 1440, "unit": "nM"}]}, {"smiles": "CCC(=O)Nc1cncc(-c2cnc3[nH]nc(-c4nc5c(-c6ccsc6)cccc5[nH]4)c3c2)c1", "note": "[Compound 785, N-(5-(3-(4-(Thiophen-3-yl)-1H-benzo[d]imidazol-2-yl)-1H-pyrazolo[3,4-b]pyridin-5-yl)pyridin-3-yl)propionamide]", "values": [{"measurement": "IC50", "value": 10, "unit": "nM"}]}]}
